Measured values taken from EP0075629A1, “Imidazole derivatives, their preparation, and their pharmaceutical compositions” (Sumitomo Chemical Industries Ltd., priority 1981, dated 1983).

What follows are molecules tested on Lewis lung carcinoma (solid) (assay: Antitumor effect on mouse experimental tumors (tumor inhibitory ratio by tumor weight)). Conditions: Dose 100 mg/kg, route i.p., schedule 5q2d (days 1, 3, 5, 7 and 9); tumors removed and weighed at day 13; BDF1 male mice.
Type: in vivo
Description: The antitumor activities of compounds of the present invention were estimated according to the methods described in "Cancer chemotheraphy reports" Part 3, Vol. 3, (No. 2) p.13 (1972).
BDF1 male mice, 5 weeks old, weighing between 18 and 22 grams were used. Each test group was composed of 6 to 7 mice. Two million cells of Lewis lung carcinoma were injected in the hind leg. The drug was administered intraperitoneally at days 1, 3, 5, 7 and 9 (or 5q2d).
After killing the mice at day 13, tumors were removed and weighed. The tumor inhibitory ratio was calculated according to the following formula: [formula]

| Structure (SMILES) | Inhibition Ratio (%) Lewis lung carcinoma (solid) [%] |
| --- | --- |
| NC(=O)c1[nH]cnc1OC(=O)C=Cc1ccc(Cl)cc1 [5-Carbamoyl-1H-imidazole-4-yl p-chlorocinnamate] | 90 |
| NC(=O)c1[nH]cnc1OC(=O)C=Cc1cccc([N+](=O)[O-])c1 [5-Carbamoyl-1H-imidazole-4-yl m-nitrocinnamate] | 90 |
| COc1ccc(C(=O)Oc2nc[nH]c2C(N)=O)cc1OC [5-Carbamoyl-1H-imidazole-4-yl 3',4'-dimethoxy-benzoate] | 83.1 |
| NC(=O)c1[nH]cnc1OC(=O)c1ccc(-c2ccccc2)cc1 [5-Carbamoyl-1H-imidazole-4-yl p-phenylbenzoate] | 77.0 |
| COc1cc(C(=O)Oc2nc[nH]c2C(N)=O)ccc1C [5-Carbamoyl-1H-imidazole-4-yl 3'-methoxy-4'-methylbenzoate] | 89.4 |
